Here are results for five molecules from patent publication US20190185479A1, “BICYCLIC NITROGENATED HETEROCYCLIC COMPOUND” (MITSUBISHI TANABE PHARMA CORPORATION, priority 2016, published 2019).

The term Ki denotes a measure of affinity in units of concentration, obtained from inhibition or displacement. As a reminder, the IC50 is the point on the concentration scale where inhibition reaches its midpoint.

Structures are written as SMILES.

Common to all, as to type: biochemical
For test [1], the target named is T1, hPDE9A (Homo sapiens, UniProt O76083).
T1 construct: made in house; host or cells: COS-7 cells
Nature of the test: PDE7 selectivity test (Ki value), Experimental Example 2: hPDE9A. To be noted: Ki from IC50 by Cheng-Prusoff, read-out: PDE inhibition constant Ki, PDE9. On the procedure:
(§1) hPDE1A, hPDE2A, hPDE3A, hPDE4D, hPDE5A, and hPDE8B were purchased from SB Drug Discovery. hPDE7B was isolated by the same method as [Method for preparing samples 1], and hPDE9A, hPDE10A, and hPDE11A were isolated by the same method as hPDE7B, i.e., isolated from COS-7 cells transfected with plasmids encoding each PDE. PDE6 was purified and isolated from bovine retina (bovine PDE6).
(§2) Prior to the calculation of Ki value, Km value of each PDE against cAMP or cGMP was calculated. Each PDE diluted with an assay buffer so that it would have an appropriate enzyme activity, and six or more concentrations of cAMP or cGMP were reacted at room temperature for 60 minutes. Regarding PDE using cAMP as a substrate, PDELight (trademark) HTS cAMP phosphodiesterase Kit (Lonza) was used to measure a degradation product, 5′-AMP. Also, regarding PDE using cGMP as a substrate, […] of perchloric acid was added to the mixture to stop the reaction, and the resulting mixture was subjected to LC-MS/MS to measure the residual cGMP concentration. The amount of degraded substrate in each substrate concentration was calculated, the concentration of the added substrate was plotted on the horizontal axis, the amount of degraded substrate was plotted on the vertical axis, and Km value was calculated by non-linear regression on the basis of Michaelis-Menten equation. Km value (substrate) of each PDE was hPDE1A: 4.3 (cGMP), hPDE2A: 36 (cAMP), hPDE3A: 0.11 (cAMP), hPDE4D: 0.90 (cAMP), hPDE5A: 3.9 (cGMP), bovine PDE6:9.8 (cGMP), hPDE7B: 0.015 (cAMP), hPDE8B: 0.63 (cAMP), hPDE9A: 0.0037 (cGMP), hPDE10A: 0.051 (cAMP), and hPDE11A: 1.4 (cAMP) μmol/L, respectively.
(§3) Next, PDE inhibition assay of a compound was carried out using each PDE. The PDE inhibition assay was basically carried out by the same enzyme reaction method as [Assay procedure 1], and the degraded amount of cAMP or cGMP was measured by the same method as [Assay procedure 2]. In the assay, a concentration approximated to Km value of each PDE against cAMP or cGMP was used as a substrate concentration. Meanwhile, regarding hPDE5A, hPDE8B, and hPDE9A, IMAP (trademark) FP Phosphodiesterase Evaluation Assay Kit (Molecular Devices) was used to measure the degradation of FAM-cAMP or FAM-cGMP by fluorescence depolarization technique.
(§4) Each compound was evaluated at six or more concentrations with common ratio 10. Each inhibition rate was calculated according to <Method for data calculation 1>, and then each IC50 value was calculated by sigmoid regression. The resulting IC50 value was used in the following Cheng-Prusoff equation to calculate each Ki value. Ki=IC50/(1+[S]/Km), wherein [S] represents a substrate concentration used

Test [2] has as its target T2, hPDE2A (Homo sapiens, UniProt O00408).
T2 construct: purchased SB Drug Discovery
Nature of the test: PDE7 selectivity test (Ki value), Experimental Example 2: hPDE2A. The following applies: Ki from IC50 by Cheng-Prusoff, read-out: PDE inhibition constant Ki, PDE2. Here is the method: as §1, §2, §3, §4

Test [3] has as its target T3, hPDE8B (Homo sapiens, UniProt O95263).
T3 construct: purchased SB Drug Discovery
Briefly: PDE7 selectivity test (Ki value), Experimental Example 2: hPDE8B. To be noted: Ki from IC50 by Cheng-Prusoff, read-out: PDE inhibition constant Ki, PDE8. On the procedure:
as §1, §2, §3, §4

Test [4] has as its target T4, hPDE3A (Homo sapiens, UniProt Q14432).
T4 construct: purchased SB Drug Discovery
Briefly: PDE7 selectivity test (Ki value), Experimental Example 2: hPDE3A. To be noted: Ki from IC50 by Cheng-Prusoff, read-out: PDE inhibition constant Ki, PDE3. Here is the method:
as §1, §2, §3, §4

Test [5] addresses T5, Human PDE7B (hPDE7B) (Homo sapiens, UniProt Q9NP56).
T5 construct: made in house; host or cells: COS-7 cells
Briefly: Measurement of PDE7 inhibitory activity (Experimental Example 1; residual cAMP, LANCE Ultra cAMP TR-FRET). The following applies: cAMP 3 nmol/L, room temperature 60 minutes. The method, boiled down: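 hPDE7B from transfected COS-7 cells reacted with 3 nmol/L cAMP (final) and compound (2% DMSO) in 50 mmol/L Tris-HCl pH 7.5, 1 mmol/L MgCl2, 0.1% BSA, 0.5 mmol/L DTT, 60 min at room temperature. Reaction stopped with IBMX; residual cAMP measured by TR-FRET. Inhibition scaled between no-compound and no-enzyme controls.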
In general terms: Time-resolved FRET reads energy transfer from a long-lived donor to a nearby acceptor.

The target of test [6] is T6, hPDE4D (Homo sapiens, UniProt Q08499).
T6 construct: purchased SB Drug Discovery
Nature of the test: PDE7 selectivity test (Ki value), Experimental Example 2: hPDE4D. To be noted: Ki from IC50 by Cheng-Prusoff, read-out: PDE inhibition constant Ki, PDE4. On the procedure: as §1, §2, §3, §4

For test [7], the target named is T7, hPDE7B (Homo sapiens, UniProt Q9NP56).
T7 construct: made in house; host or cells: COS-7 cells
Nature of the test: PDE7 selectivity test (Ki value), Experimental Example 2: hPDE7B. To be noted: Ki from IC50 by Cheng-Prusoff, read-out: PDE inhibition constant Ki, PDE7. Here is the method:
as §1, §2, §3, §4

Test [8] concerns the target hPDE10A (Homo sapiens, UniProt Q9Y233). Nature of the test: PDE7 selectivity test (Ki value), Experimental Example 2: hPDE10A. The following applies: Ki from IC50 by Cheng-Prusoff, read-out: PDE inhibition constant Ki, PDE10. Here is the method:
as §1, §2, §3, §4

Test [9] addresses T8, hPDE11A (Homo sapiens, UniProt Q9HCR9).
T8 construct: made in house; host or cells: COS-7 cells
Nature of the test: PDE7 selectivity test (Ki value), Experimental Example 2: hPDE11A. The following applies: Ki from IC50 by Cheng-Prusoff, read-out: PDE inhibition constant Ki, PDE11. On the procedure:
as §1, §2, §3, §4

T6 sequence (Q08499 whole entry): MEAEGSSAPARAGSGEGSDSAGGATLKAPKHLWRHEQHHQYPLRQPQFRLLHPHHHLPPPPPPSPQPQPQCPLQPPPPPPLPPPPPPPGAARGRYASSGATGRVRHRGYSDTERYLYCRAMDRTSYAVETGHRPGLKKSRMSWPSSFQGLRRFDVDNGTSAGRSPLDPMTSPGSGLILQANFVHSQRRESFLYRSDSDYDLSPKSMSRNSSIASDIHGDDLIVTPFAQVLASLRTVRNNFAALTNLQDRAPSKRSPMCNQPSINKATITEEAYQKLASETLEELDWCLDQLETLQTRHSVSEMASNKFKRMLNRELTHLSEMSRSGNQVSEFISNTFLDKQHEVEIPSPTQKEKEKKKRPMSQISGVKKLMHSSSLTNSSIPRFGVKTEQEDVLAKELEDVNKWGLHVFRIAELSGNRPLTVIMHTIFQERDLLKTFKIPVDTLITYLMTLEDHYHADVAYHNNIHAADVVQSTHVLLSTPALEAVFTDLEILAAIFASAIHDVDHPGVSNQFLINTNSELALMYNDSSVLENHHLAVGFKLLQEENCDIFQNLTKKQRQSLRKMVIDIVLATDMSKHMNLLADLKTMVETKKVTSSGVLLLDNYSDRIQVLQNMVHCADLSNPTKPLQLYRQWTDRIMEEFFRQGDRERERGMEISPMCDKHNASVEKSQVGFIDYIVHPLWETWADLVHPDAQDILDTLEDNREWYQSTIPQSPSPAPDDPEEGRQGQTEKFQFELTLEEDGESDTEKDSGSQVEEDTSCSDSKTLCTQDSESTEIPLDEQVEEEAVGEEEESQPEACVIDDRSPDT
Sequence of hPDE10A (Q9Y233 290-1055 limits assumed): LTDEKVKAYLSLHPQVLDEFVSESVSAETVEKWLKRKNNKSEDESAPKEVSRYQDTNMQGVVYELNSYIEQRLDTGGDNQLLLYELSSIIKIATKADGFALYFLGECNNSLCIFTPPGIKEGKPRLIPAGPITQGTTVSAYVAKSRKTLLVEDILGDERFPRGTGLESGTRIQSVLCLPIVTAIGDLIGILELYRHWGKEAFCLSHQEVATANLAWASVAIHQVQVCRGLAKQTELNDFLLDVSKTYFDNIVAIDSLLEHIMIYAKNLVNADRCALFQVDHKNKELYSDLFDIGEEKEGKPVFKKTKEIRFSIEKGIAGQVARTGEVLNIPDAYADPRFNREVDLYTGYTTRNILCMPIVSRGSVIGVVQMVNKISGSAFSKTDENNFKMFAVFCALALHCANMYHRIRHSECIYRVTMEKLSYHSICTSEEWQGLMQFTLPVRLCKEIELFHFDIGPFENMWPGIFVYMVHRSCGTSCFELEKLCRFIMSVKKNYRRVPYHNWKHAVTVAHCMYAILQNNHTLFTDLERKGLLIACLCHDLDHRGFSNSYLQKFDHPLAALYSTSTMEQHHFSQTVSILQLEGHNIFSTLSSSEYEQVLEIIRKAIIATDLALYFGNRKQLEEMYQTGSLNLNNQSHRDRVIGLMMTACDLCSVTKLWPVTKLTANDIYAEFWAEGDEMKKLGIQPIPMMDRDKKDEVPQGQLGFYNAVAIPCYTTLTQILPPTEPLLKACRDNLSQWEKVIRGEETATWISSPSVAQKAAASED
T7 sequence (Q9NP56 whole entry): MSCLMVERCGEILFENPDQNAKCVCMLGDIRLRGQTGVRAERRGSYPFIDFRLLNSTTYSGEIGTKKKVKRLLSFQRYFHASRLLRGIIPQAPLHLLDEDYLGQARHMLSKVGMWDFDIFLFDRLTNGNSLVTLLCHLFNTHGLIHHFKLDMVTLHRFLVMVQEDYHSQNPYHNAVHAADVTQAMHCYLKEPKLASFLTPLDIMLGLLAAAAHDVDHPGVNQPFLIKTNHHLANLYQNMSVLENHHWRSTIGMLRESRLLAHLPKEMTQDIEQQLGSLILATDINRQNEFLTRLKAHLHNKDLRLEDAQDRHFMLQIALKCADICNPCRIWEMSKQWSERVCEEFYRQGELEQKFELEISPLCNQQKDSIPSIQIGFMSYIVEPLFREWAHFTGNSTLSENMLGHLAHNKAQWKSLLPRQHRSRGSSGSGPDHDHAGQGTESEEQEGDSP
T5 sequence (Q9NP56 whole entry): as above
T2 sequence (O00408 whole entry): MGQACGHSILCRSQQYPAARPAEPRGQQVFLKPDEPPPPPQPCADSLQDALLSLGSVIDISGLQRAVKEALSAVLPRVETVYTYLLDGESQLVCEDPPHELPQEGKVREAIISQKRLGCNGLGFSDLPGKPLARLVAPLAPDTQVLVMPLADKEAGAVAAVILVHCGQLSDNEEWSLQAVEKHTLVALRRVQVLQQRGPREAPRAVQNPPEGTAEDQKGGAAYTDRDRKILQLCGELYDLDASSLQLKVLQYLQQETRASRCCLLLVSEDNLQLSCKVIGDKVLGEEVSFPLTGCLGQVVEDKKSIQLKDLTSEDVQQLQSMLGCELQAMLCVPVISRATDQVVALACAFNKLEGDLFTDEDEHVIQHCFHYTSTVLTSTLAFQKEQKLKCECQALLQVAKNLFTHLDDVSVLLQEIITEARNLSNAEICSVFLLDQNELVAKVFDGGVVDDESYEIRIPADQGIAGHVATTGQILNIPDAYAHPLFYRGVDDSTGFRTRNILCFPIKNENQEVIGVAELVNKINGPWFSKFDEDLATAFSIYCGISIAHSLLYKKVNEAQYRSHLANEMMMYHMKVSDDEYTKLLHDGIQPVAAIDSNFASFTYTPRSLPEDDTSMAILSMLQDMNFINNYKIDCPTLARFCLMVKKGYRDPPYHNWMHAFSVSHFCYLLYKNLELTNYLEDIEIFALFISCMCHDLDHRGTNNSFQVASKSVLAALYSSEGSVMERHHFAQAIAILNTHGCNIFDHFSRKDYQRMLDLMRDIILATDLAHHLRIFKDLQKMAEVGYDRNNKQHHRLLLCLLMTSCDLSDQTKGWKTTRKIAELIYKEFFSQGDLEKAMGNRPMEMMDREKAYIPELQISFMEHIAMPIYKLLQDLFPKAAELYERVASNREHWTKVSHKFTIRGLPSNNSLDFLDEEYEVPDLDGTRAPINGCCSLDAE
T8 sequence (Q9HCR9 whole entry): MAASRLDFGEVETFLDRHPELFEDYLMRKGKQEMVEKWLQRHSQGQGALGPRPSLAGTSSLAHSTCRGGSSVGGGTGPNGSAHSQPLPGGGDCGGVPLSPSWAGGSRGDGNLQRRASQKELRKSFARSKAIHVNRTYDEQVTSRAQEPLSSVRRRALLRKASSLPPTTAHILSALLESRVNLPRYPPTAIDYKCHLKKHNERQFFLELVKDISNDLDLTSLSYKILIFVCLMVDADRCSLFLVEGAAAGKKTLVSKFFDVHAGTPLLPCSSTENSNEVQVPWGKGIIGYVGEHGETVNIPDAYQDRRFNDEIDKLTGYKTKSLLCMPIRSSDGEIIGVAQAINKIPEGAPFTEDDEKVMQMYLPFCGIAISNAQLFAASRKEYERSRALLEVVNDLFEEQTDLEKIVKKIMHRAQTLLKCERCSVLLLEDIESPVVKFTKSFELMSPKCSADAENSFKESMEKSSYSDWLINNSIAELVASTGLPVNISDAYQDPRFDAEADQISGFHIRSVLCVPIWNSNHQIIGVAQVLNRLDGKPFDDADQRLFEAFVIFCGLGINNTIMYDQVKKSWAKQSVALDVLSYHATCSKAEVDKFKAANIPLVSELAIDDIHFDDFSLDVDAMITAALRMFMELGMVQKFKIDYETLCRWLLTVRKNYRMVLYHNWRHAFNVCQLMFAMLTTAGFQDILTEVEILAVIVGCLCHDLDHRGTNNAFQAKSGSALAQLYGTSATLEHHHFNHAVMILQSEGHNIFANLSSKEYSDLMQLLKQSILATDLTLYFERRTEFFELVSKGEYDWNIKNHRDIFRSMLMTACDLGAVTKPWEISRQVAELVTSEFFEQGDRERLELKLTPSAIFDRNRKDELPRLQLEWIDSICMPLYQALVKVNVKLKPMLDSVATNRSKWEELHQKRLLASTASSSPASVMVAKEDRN
T1 sequence (O76083 whole entry): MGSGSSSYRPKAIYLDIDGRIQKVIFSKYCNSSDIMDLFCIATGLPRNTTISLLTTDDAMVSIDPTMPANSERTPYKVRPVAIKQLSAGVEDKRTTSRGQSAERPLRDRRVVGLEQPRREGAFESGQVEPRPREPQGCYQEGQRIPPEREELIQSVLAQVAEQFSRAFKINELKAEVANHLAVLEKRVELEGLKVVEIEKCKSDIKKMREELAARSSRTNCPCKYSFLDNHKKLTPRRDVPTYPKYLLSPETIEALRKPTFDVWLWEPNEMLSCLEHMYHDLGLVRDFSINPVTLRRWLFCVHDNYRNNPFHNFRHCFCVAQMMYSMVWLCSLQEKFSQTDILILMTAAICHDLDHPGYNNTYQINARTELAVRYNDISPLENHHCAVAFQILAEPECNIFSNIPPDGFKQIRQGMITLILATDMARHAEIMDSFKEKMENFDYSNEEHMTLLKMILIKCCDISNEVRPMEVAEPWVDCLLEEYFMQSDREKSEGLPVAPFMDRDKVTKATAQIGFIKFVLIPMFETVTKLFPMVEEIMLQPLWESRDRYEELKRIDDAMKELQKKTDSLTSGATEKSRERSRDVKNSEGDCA

Regarding `CC1CCCCC1n1nnc2c(N)ncnc21` (single isomer, unassigned) [Example 191, 3-(cis-2-methylcyclohexyl)-3H-[1,2,3]triazolo[4,5-d]pyrimidin-7-amine], the inhibition constant (Ki) in [1] is above 3600 nM; in test [2], 10000 nM; in test [3], 5300 nM; in [4], above 52000 nM; in test [6], 4200 nM; in test [7], 12 nM. The Ki in [8] was 2400 nM. In [5], this molecule gave an IC50 below 10 nM.

For `Nc1ncnc2c1nnn2C1CCCCC1` [Example 3, 3-cyclohexyl-3H-[1,2,3]triazolo[4,5-d]pyrimidin-7-amine], the Ki in [1] is above 3600 nM; in test [9], 29000 nM; in test [2], 27000 nM; in test [3], 770 nM; in test [4] it was above 52000 nM; in [6] it was 4400 nM. The values for the Ki in [7] and in test [8] were 31 nM and 12000 nM, respectively. The molecule also registered a 50% inhibitory concentration (IC50) in [5] of 50 nM.

As to `Cc1nc(N)c2nnn(C3CCCCC3)c2n1` [Example 4], the Ki was above 360 nM in test [1]; above 5000 nM in test [9]; 6600 nM in test [2]; 85 nM in test [3]; above 5200 nM in [4]; 220 nM in [6]. Besides, the Ki is 27 nM in [7] and 1100 nM in test [8]. This molecule also showed a half-maximal inhibitory concentration (IC50) in test [5] of 50 nM.

As to `Nc1nccn2c(C3CCCCC3)nnc12` [Example 141, 3-cyclohexyl[1,2,4]triazolo[4,3-a]pyrazin-8-amine], the Ki in [1] is above 360 nM; in test [9], above 5000 nM; in test [2] it was above 5100 nM; in test [3], 1400 nM; in test [4], above 5200 nM; in test [6], above 4800 nM. In addition, the inhibition constant Ki was 31 nM in test [7] and above 5100 nM in [8]. In test [5], this molecule gave an IC50 of 10 nM.

For the molecule `C[C@@H]1CCC[C@H](c2nnc3c(N)nccn23)C1` [Example 204, 3-[(1S,3R)-3-methylcyclohexyl][1,2,4]triazolo[4,3-a]pyrazin-8-amine], the Ki was above 3600 nM in test [1]; 46000 nM in [9]; 14000 nM in [2]; 1400 nM in test [3]; 43000 nM in [4]; 1200 nM in test [6]. The Ki in [7] was 3 nM; in test [8], 2600 nM. The IC50 in [5] is below 10 nM.
